These results are taken from BindingDB's records for doi:10.3109/14756360902932784 (Ewha Womans University, 2010).

Numbering of substitutions follows the chain as printed.

Test [1] addresses T1, 5-hydroxytryptamine receptor 2C (Homo sapiens, UniProt P28335).
T1 sequence (P28335 whole entry): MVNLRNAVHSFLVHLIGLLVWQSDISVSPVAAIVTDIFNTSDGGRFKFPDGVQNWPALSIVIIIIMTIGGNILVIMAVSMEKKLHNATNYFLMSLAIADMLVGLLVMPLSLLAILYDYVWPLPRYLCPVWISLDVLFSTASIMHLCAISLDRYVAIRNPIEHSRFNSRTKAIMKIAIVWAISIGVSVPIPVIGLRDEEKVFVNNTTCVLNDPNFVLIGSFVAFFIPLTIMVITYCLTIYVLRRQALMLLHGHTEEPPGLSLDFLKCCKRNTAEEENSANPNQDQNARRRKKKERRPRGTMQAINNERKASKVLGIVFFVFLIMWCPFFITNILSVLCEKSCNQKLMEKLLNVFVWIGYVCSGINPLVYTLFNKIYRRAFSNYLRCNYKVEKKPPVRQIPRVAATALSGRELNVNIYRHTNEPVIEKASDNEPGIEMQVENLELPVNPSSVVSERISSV
The test can be described thus: [3H]Mesulergine Binding Assay. Particulars: pH 7.4. On the procedure: (§1) Frozen membranes from a stable CHO-K1 cell line expressing the human recombinant 5-HT2C receptor (PerkinElmer) were used. For the binding assay, [3H]mesulergine (1 nM; Amersham Biosciences, Buckinghamshire, UK), receptor membrane, and test compounds were added into 50 mM Tris-HCl (pH 7.4) buffer containing 0.1% ascorbic acid and 4 mM CaCl2. Nonspecific binding was determined using 100 μM mianserin. The incubations were performed for 60 min at 27°C, and these were terminated by rapid filtration through a Filtermat A glass fiber filter presoaked in 0.5% PEI.

Test [2] has as its target 5-hydroxytryptamine receptor 7 (Homo sapiens, UniProt P34969). The test can be described thus: [3H] LSD Binding Assay. Particulars: pH 7.4; 27 °C. The method, then: (§2) For receptor binding assays, human 5-HT6 and 5-HT7 serotonin receptors expressed in CHO-K1 cells (PerkinElmer) were used. For 5-HT6 receptor binding, frozen membrane, 1 nM [3H]LSD (lysergic acid diethylamide; PerkinElmer), and appropriate concentrations of test compounds were added to 0.25 mL of 50 mM Tris-HCl (pH 7.4) buffer containing 0.1% ascorbic acid and 4 mM CaCl2. Nonspecific binding was determined using 10 μM methiothepin. The incubations were performed for 60 min at 27 °C, and these were terminated by rapid filtration through a Filtermat A glassfiber filter presoaked in 0.5% PEI. For the 5-HT7 receptor binding assay, cell membrane, 3 nM [3H]LSD, and appropriate concentrations of test compounds were added to 0.25 mL of 50 mM Tris-HCl (pH 7.4) buffer containing 10 mM MgSO4 and 0.5 mM EDTA. The mixture was incubated for 120 min at 27 °C, and the reaction was terminated by rapid filtration through a Filtermat A glass fiber filter presoaked in 0.3% PEI. Nonspecific binding was determined using 10 μM methiothepin.

Test [3] addresses 5-hydroxytryptamine receptor 6 (Homo sapiens, UniProt P50406). Nature of the test: [3H] LSD Binding Assay. The conditions noted are these: pH 7.4; 27 °C. On the procedure: as §2
Test [4] deals with 5-hydroxytryptamine receptor 2A (Homo sapiens, UniProt P28223). The test can be described thus: [3H]Ketanserin Binding Assay. The conditions noted are these: pH 7.4. The method, then:
For serotonin 5-HT2A binding, an aliquot of frozen membrane from a CHO-K1 cell line expressing the human recombinant 5-HT2A receptor (PerkinElmer) and [3H]ketanserin (1 nM; PerkinElmer) were used in the presence of mianserin (20 μM) as nonspecific. The reaction mixture was incubated for 60 min at 27°C using 50 mM Tris-HCl (pH 7.4) buffer containin 4 mM CaCl2 and 0.1% ascorbic acid, and harvested through a Filtermat A glass fiber filter presoaked in 0.5% PEI.

In test [5] the target is T2, 5-hydroxytryptamine receptor 1A (Homo sapiens, UniProt P08908).
T2 sequence (P08908 whole entry): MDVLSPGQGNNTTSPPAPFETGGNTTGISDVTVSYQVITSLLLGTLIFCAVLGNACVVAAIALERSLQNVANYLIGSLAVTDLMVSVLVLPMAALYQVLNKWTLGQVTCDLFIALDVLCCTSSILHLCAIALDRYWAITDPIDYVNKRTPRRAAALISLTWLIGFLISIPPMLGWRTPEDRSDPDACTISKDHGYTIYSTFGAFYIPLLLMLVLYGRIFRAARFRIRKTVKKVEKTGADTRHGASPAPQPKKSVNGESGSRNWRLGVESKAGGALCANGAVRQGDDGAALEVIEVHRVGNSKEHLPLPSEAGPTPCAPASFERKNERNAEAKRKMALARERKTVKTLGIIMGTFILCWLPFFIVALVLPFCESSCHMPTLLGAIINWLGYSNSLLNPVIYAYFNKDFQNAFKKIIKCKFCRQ
The test can be described thus: [3H]8-OH-DPAT Binding Assay. The conditions noted are these: pH 7.4; 27 °C. The method, then:
For the binding assay, aliquots of receptor membranes, 0.25 nM [3H]8-OH-DPAT (8-hydroxy-2-(di-N-propylamino)tetralin, 154.3 Ci/mM; New England Nuclear, Boston, MA) and appropriate concentrations of test compounds were added to 0.25 mL of 50 mM Tris-HCl (pH 7.4) buffer containing 10 mM MgSO4, 0.5 mM ethylenediaminetetraacetic acid (EDTA), and 0.1% ascorbic acid. Incubations were carried out for 60 min at 27 °C, and these were terminated by rapid filtration using a MicroBeta FilterMate-96 harvester (PerkinElmer) through a Filtermat A glass fiber filter presoaked in 0.3% polyethylenimine (PEI). The filter was washed with ice-cold 50 mM Tris-HCl buffer solution (pH 7.4), and was then covered with MeltiLex, sealed in a sample bag, and dried in an oven.

Test [6] concerns the target T3, 5-hydroxytryptamine receptor 2C (Homo sapiens, UniProt P28335).
T3 sequence (P28335 whole entry): T1 sequence (P28335 whole entry) with S23C
The test can be described thus: [3H]Mesulergine Binding Assay. Particulars: pH 7.4. The method, then: as §1
The source holds these as a separate data set.

Sequence of 5-hydroxytryptamine receptor 6 (P50406 whole entry): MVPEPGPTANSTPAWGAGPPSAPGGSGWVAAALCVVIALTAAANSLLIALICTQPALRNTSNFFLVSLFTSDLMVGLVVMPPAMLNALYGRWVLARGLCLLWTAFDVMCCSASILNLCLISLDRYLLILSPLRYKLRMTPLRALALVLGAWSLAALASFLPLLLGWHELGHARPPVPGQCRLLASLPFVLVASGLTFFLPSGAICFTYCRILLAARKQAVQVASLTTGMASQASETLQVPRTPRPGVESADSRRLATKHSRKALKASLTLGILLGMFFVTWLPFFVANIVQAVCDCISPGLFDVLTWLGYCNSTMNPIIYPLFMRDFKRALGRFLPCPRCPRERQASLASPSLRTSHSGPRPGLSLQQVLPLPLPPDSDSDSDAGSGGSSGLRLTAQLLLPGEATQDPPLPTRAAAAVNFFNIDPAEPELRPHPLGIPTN
Sequence of 5-hydroxytryptamine receptor 7 (P34969 whole entry): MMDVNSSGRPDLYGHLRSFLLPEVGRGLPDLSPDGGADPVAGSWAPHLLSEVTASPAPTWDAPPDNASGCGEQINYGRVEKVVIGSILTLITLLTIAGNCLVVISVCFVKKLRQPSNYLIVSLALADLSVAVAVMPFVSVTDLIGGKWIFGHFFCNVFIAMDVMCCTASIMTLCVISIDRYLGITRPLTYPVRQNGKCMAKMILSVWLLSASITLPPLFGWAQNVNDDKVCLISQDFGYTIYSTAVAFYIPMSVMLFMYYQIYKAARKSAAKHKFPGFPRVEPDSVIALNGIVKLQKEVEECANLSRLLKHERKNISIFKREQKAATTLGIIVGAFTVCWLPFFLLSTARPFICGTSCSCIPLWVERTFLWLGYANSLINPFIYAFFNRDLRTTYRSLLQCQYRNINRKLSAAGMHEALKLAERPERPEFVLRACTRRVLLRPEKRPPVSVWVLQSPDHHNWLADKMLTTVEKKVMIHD
Sequence of 5-hydroxytryptamine receptor 2A (P28223 whole entry): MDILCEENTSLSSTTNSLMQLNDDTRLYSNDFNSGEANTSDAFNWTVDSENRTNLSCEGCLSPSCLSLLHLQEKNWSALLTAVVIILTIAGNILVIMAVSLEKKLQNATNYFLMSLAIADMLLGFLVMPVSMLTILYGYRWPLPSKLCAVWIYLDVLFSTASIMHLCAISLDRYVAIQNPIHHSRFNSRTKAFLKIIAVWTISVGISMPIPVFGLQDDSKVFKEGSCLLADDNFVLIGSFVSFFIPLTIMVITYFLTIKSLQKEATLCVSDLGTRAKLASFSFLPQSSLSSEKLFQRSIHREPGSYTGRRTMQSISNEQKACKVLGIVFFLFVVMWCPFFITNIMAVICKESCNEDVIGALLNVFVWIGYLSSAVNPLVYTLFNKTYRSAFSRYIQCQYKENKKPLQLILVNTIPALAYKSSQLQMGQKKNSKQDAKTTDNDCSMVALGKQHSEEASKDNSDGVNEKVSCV

For orientation: IC50 means the concentration that gives 50% inhibition. High values mean lower potency, low ones higher potency. For `COc1cc(/C=C/C(=O)O)cc(OC)c1OC` [3,4,5-Trimethoxycinnamic acid (TMCA)], the IC50 in test [1] is 2.5 µM; in test [2], more than 10 µM; in test [3] it was more than 10 µM; in test [4], more than 10 µM; in test [5] it was 7.6 µM.
Regarding `C=CCNC(=O)/C=C/c1cc(OC)c(OC)c(OC)c1` [(E)-N-Allyl-3-(3,4,5-trimethoxyphenyl) acrylamide (1b)], the concentration for half-maximal inhibition (IC50) was more than 10 µM in test [6]; more than 10 µM in test [2]; more than 10 µM in test [3]; more than 10 µM in test [4]; 5.9 µM in test [5].
With `CCCCNC(=O)/C=C/c1cc(OC)c(OC)c(OC)c1` [(E)-N-Butyl-3-(3,4,5-trimethoxyphenyl) acrylamide (1c)], the concentration for half-maximal inhibition (IC50) was more than 10 µM in test [6]; more than 10 µM in test [2]; more than 10 µM in test [3]; more than 10 µM in test [4]; 4.9 µM in test [5].
Consider `CCCCCCCCCCNC(=O)/C=C/c1cc(OC)c(OC)c(OC)c1` [(E)-N-Decyl-3-(3,4,5-trimethoxyphenyl) acrylamide (1f)], for which the concentration for half-maximal inhibition (IC50) is 4.5 µM in test [1]; 6.7 µM in test [2]; 5.6 µM in test [3]; 6.8 µM in test [4]; 2.1 µM in test [5].
`CCCCCCNC(=O)/C=C/c1cc(OC)c(OC)c(OC)c1` [(E)-N-Hexyl-3-(3,4,5-trimethoxyphenyl) acrylamide (1d)]: the IC50 in test [6] was more than 10 µM; in test [2], more than 10 µM; in test [3], more than 10 µM; in test [4], more than 10 µM; in test [5], 3.8 µM.
Consider `CNC(=O)/C=C/c1cc(OC)c(OC)c(OC)c1` [(E)-N-Methyl-3-(3,4,5-trimethoxyphenyl) acrylamide (1a)], for which the half-inhibitory concentration (IC50) in test [6] is more than 10 µM; in test [2] it was more than 10 µM; in test [3], more than 10 µM; in test [4], more than 10 µM; in test [5] it was 5.6 µM.
As for `CCCCCCCCNC(=O)/C=C/c1cc(OC)c(OC)c(OC)c1` [(E)-N-Octyl-3-(3,4,5-trimethoxyphenyl) acrylamide (1e)], the IC50 is 8.8 µM in test [1]; more than 10 µM in test [2]; more than 10 µM in test [3]; more than 10 µM in test [4]; 1.2 µM in test [5].
